Measurements reported in patent US9834541B2, “2-aminopyridine compounds” (Merck Patent GmbH, priority 2012, dated 2017).

Legend:
Wnt pathway = assay: Cellular assay for Wnt pathway activity, LS174T-shl-fLuc clone 5 (LS174T-L5) luciferase reporter assay; type: cell-based; details: Homo sapiens; LS174T TCF luciferase reporter cells, 24 hours incubation
Excerpt: 1. Cellular Assay for Wnt Pathway Activity LS174T-shl-fLuc Clone 5 (LS174T-L5) Reporter Assay Principle:
This assay is based on an in-vitro luciferase activity readout. The human colon cancer cell line, LS174T was transduced with a lentivirus encoding a short half-life luciferase (with a destabilised PEST sequence construct; construct F1756): 16×TCF/LEF transcription sites—short half life firefly luciferase on a basal pTA promoter—puromycin resistance gene on an EF-1-α promoter). This construct was made using the lentiviral base vector: pCDF1-MCS2-EF1-Puro from System Biosciences (cat. # CD110B-1). The luciferase has a T1/2 of about 60 minutes.
Stable luciferase-expressing clones were selected, using 1 μg/mL puromycin selection and the clones were bulked up.
Compounds that inhibit the Wnt pathway are predicted to inhibit the induction of luciferase transcription by TCF; this will result in reduced luciferase protein production and luciferase signal readout.
Compounds were tested for their Wnt pathway inhibitory activities using the described firefly luciferase reporter cell based assay. An LS174T luciferase reporter cell line was used which contained a T-Cell Factor (TCF) dependent gene promoter firefly luciferase construct.
Compounds, in concentrations from 30 μM to 1 nM, were incubated for 24 hours on the cells. Luciferase activities were determined using the Steady Glo Luciferase Assay System (Promega) and the TOPCOUNT microplate reader (Perkin Elmer). For analysis, the obtained data were normalized against the untreated vehicle control and fitted for determination of the IC50 values using the Excel Fit application of the Excel Software (Microsoft).

[1] = CLint (intrinsic clearance) assay, liver microsomal incubation; type: in vitro ADME, human; details: liver microsomes, pH 7.4; human hepatic microsomes, 0.5 mg/mL protein, class symbols
Protocol: Also shown is the human hepatic microsomal intrinsic clearance (CLint), whereby the following classification is used:
2. CLint (Intrinsic Clearance) Assay
A Tecan Genesis workstation (RWS ASY 150/8) was used to perform the microsomal incubations. Analysis was carried out using a Waters ACQUITY UPLC system coupled to an ABSciex API3000 mass spectrometer. Data analysis was performed using Assay Explorer (Symyx).
Column: Acquity UPLC BEH C18, 2.1×50 mm, 1.7 um (Waters)
Mobile phases: • A=0.1% formic acid in water • B=acetonitrile
Column temperature: 50° C.
0.1 M potassium phosphate buffer pH 7.4 containing 1 mM MgCl2
15 mM NADPH in phosphate buffer
5.0 mg protein/mL liver microsomes in phosphate buffer
Each experiment consists of 12 test and 2 reference compounds. The reference compounds are incubated as a cocktail.
Dilution of test compounds was done in 2 steps from a 10 mM DMSO stock solution. First 4 μL stock solution was added to 196 μL of 20% DMSO in potassium phosphate buffer pH 7.4. In a second step 10 μL of the first dilution were added to 1890 μL potassium phosphate buffer and 100 μL internal standard solution to a final concentration of […].
100 μL of the final compound dilution were aliquoted into a 96 deep well plate. 12.5 μL liver microsomes were added to each well (0.5 mg/mL final protein concentration) and the samples preincubated for 5 min at 37° C. and 800 rpm agitation.
After the preincubation, 250 μL cold acetonitrile were added to the 0 min samples to prevent a reaction. Following this, 12.5 μL NADPH solution were added to all wells to start the incubation, with the exception of the 0 min and 30 min controls without cofactor, where the NADPH was substituted for phosphate buffer.
The incubations were stopped after 5, 10, 20 and 30 min by adding 250 μL cold acetonitrile to the individual wells.
The quenched samples were then centrifuged at 4000 g for 1 h at 4° C. 100 μL of the supernatant were transferred into 96 well plates for analysis.
The metabolic stability of each compound was determined by measurement of the change in LC-MS/MS peak area over time. Assay Explorer software was used to automatically calculate the slope k of the decline. The intrinsic clearance (CLint) of each compound was then calculated according to the formula: CLint(μL/min/mg protein)=k1000/protein concentration.

SMILES | IC50 (Wnt pathway) [nM] | microsomal CLint at 0.8 μM [1] [µL/min/mg]
CN1C(=O)Cc2cc(-c3cnc(N)c(Cl)c3N3CCC4(CCNC4=O)CC3)ccc21 [Compound 15, 8-[2-Amino-3-chloro-5-(1-methyl-2-oxo-2,3-dihydro-1H-indol-5-yl)-pyridin-4-yl]-2,8-diaza-spiro[4.5] decan-1-one] | 54 | 10 to 50
Cn1cc(-c2ccc(-c3cnc(N)c(Cl)c3N3CCC4(CCNC4=O)CC3)cc2)cn1 [Compound 16, 8-(2-Amino-3-chloro-5-(4-(1-methyl-1H-pyrazol-4-yl)phenyl)pyridin-4-yl)-2,8-diazaspiro[4.5]decan-1-one] | 25 | 100 to 150
Cn1ncc2cc(-c3cnc(N)c(Cl)c3N3CCC4(CC3)CC(=O)NC4=O)ccc21 [Compound 17, 8-[2-Amino-3-chloro-5-(1-methyl-1H-indazol-5-yl)-pyridin-4-yl]-2,8-diaza-spiro[4.5] decane-1,3-dione] | 2 | 10 to 50
Nc1ncc(-c2ccc(N3CCOCC3)cc2)c(N2CCC3(CCNC3=O)CC2)c1Cl [Compound 18, 8-[2-Amino-3-chloro-5-(4-morpholin-4-yl-phenyl)-pyridin-4-yl]-2,8-diaza-spiro[4.5] decan-1-one] | 120 | 50 to 100
Nc1ncc(-c2ccc3c(c2)CCC(=O)N3)c(N2CCC3(CCNC3=O)CC2)c1Cl [Compound 19, 6-[6-Amino-5-chloro-4-(1-oxo-2,8-diaza-spiro[4.5]dec-8-yl)-pyridin-3-yl]-3,4-dihydro-1H-quinolin-2-one] | 75 | 10 to 50
Cn1ncc2ccc(-c3cnc(N)c(Cl)c3N3CCC4(CC3)CNC(=O)O4)cc21 [Compound 20, 8-[2-Amino-3-chloro-5-(1-methyl-1H-indazol-6-yl)-pyridin-4-yl]-1-oxa-3,8-diaza-spiro[4.5] decan-2-one] | 54 | 10 to 50
Cn1ncc2cc(-c3cnc(N)c(Cl)c3N3CCC4(CC3)CNC(=O)O4)ccc21 [Compound 21, 8-[2-Amino-3-chloro-5-(1-methyl-1H-indazol-5-yl)-pyridin-4-yl]-1-oxa-3,8-diaza-spiro[4.5] decan-2-one] | 110 | 10 to 50
Cn1ccc(-c2ccc(-c3cnc(N)c(Cl)c3N3CCC4(CCNC4=O)CC3)cc2)n1 [Compound 22, 8-(2-Amino-3-chloro-5-(4-(1-methyl-1H-pyrazol-3-yl)phenyl)pyridin-4-yl)-2,8-diazaspiro[4.5]decan-1-one] | 38 | 10 to 50
Cn1ncc2ccc(-c3cnc(N)c(Cl)c3N3CCC4(CCNC4=O)CC3)cc21 [Compound 23, 8-[2-Amino-3-chloro-5-(1-methyl-1H-indazol-6-yl)-pyridin-4-yl]-2,8-diaza-spiro[4.5] decan-1-one] | 21 | 10 to 50
Nc1ncc(-c2ccc3cc[nH]c3c2)c(N2CCC3(CCNC3=O)CC2)c1Cl [Compound 24, 8-[2-Amino-3-chloro-5-(1H-indol-6-yl)-pyridin-4-yl]-2,8-diaza-spiro[4.5] decan-1-one] | 18 | 100 to 150
Cn1ncc2cc(-c3cnc(N)c(Cl)c3N3CCC4(CCNC4=O)CC3)ccc21 [Compound 25, 8-(2-Amino-3-chloro-5-(1-methyl-1H-indazol-5-yl)pyridin-4-yl)-2,8-diazaspiro[4.5]decan-1-one] | 34 | 50 to 100
CN1c2ccc(-c3cnc(N)c(Cl)c3N3CCC4(CCNC4=O)CC3)cc2CS1(=O)=O [Compound 26, 8-(2-Amino-3-chloro-5-(1-methyl-2,2-dioxido-1,3-dihydrobenzo[c]isothiazol-5-yl)pyridin-4-yl)-2,8-diazaspiro[4.5]decan-1-one] | 6 | 100 to 150
N#CC1CCN(c2c(-c3ccc(N4CCOCC4)cc3)cnc(N)c2Cl)CC1 [Compound 27, 1-(2-Amino-3-chloro-5-(4-morpholinophenyl)pyridin-4-yl)piperidine-4-carbonitrile] | 34 | 100 to 150
Nc1ccc(-c2ccc(-c3cnc(N)c(Cl)c3N3CCC4(CCNC4=O)CC3)cc2)cn1 [Compound 28, 8-{2-Amino-5-[4-(6-amino-pyridin-3-yl)-phenyl]-3-chloro-pyridin-4-yl}-2,8-diaza-spiro[4.5] decan-1-one] | 12 | ≥ 150
Nc1ncc(-c2ccc3cc[nH]c3c2)c(N2CCC3(CC2)CNC(=O)O3)c1Cl [Compound 29, 8-[2-Amino-3-chloro-5-(1H-indol-6-yl)-pyridin-4-yl]-1-oxa-3,8-diaza-spiro[4.5] decan-2-one] | 30 | 100 to 150
CN1CCN(c2ccc(-c3cnc(N)c(Cl)c3N3CCC(C#N)CC3)cc2)CC1 [Compound 30, 1-(2-Amino-3-chloro-5-(4-(4-methylpiperazin-1-yl)phenyl)pyridin-4-yl)piperidine-4-carbonitrile] | 12 | 10 to 50
Cn1ncc2cc(-c3cnc(N)c(Cl)c3N3CCC4(CC3)C(=O)Nc3ccccc34)ccc21 [Compound 31, 1′-(2-Amino-3-chloro-5-(1-methyl-1H-indazol-5-yl)pyridin-4-yl)spiro[indoline-3,4′-piperidin]-2-one] | 4 | 50 to 100
Nc1ncc(-c2ccc3oc(=O)[nH]c3c2)c(N2CCC3(CCNC3=O)CC2)c1Cl [Compound 32, 5-[6-Amino-5-chloro-4-(1-oxo-2,8-diaza-spiro[4.5]dec-8-yl)-pyridin-3-yl]-3H-benzooxazol-2-one] | 17 | 10 to 50
Nc1ncc(-c2ccc3c(c2)CC(=O)N3)c(N2CCC3(CCNC3=O)CC2)c1Cl [Compound 33, 8-[2-Amino-3-chloro-5-(2-oxo-2,3-dihydro-1H-indol-5-yl)-pyridin-4-yl]-2,8-diaza-spiro[4.5] decan-1-one] | 154 | 10 to 50
Nc1ncc(-c2ccc(-c3cnn(CCO)c3)cc2)c(N2CCC3(CC2)CNC(=O)O3)c1Cl [Compound 34, 8-(2-Amino-3-chloro-5-{4-[1-(2-hydroxy-ethyl)-1H-pyrazol-4-yl]-phenyl}-pyridin-4-yl)-1-oxa-3,8-diaza-spiro[4.5] decan-2-one] | 370 | 10 to 50
Cn1ncc2cc(-c3cnc(N)c(C(F)(F)F)c3N3CCC4(CCNC4=O)CC3)ccc21 [Compound 39, 8-(2-Amino-5-(1-methyl-1H-indazol-5-yl)-3-(trifluoromethyl)pyridin-4-yl)-2,8-diazaspiro[4.5]decan-1-one] | 35 | 50 to 100
Cn1cc(-c2ccc(-c3cnc(N)c(Cl)c3N3CCC4(CC3)NCCNC4=O)cc2)cn1 [Compound 40, 9-(2-Amino-3-chloro-5-(4-(1-methyl-1H-pyrazol-4-yl)phenyl)pyridin-4-yl)-1,4,9-triazaspiro[5.5]undecan-5-one] | 100 | 10 to 50
Cn1cc(-c2ccc(-c3cnc(N)c(C(F)(F)F)c3N3CCC4(CC3)CNC(=O)O4)cc2)cn1 [Compound 41, 8-{2-Amino-5-[4-(1-methyl-1H-pyrazol-4-yl)-phenyl]-3-trifluoromethyl-pyridin-4-yl}-1-oxa-3,8-diaza-spiro[4.5] decan-2-one] | 75 | < 10
